For 92 compounds, melting point results are on record in a melting point compilation (Tetko et al.; mined from patent text by program, amines drawn as free bases though some values may be those of a salt).

Broadly, the melting point is the temperature, or range, at which the solid turns liquid.

Each structure is given as a SMILES string.

`CCc1ccc(NC(=S)Nc2cc([N+](=O)[O-])ccc2O)cc1` had a melting point of 137 to 138 °C.

The compound `O=C(NCc1ccc(Cl)cc1)c1cn2c3c(cc(CN4CCOCC4)cc3c1=O)N=C(NCc1ccccc1)C2` gave a melting point of 235 to 240 °C.

On to `COC(=O)c1nn(C2CCCCO2)cc1NC(=O)c1ccc(C)nc1` (configuration not stated), for which the melting point lay within 142 to 143 °C.

For `CCCCc1nc2c(N)nc3ccccc3c2n1CCCCCCl`, the melting point is 144 to 146 °C.

Turning to `CCN(CC)C(=CC1=NCCCC1)c1ccccc1`, the melting point lay within 169 to 170 °C.

In the case of `CCCCn1c(=O)c(C(=O)OCC)c(N)c2cnc(C)nc21`, the melting point was in the range of 214 to 216 °C.

`O=C(c1ccc(F)cc1)c1ccc(Cl)cn1` came in with a melting point of 98 to 100 °C.

As for `CN1C(=S)[C@H](NC(=O)OCc2ccccc2)N=C(c2ccccc2)c2ccccc21`, the melting point was 128 to 131 °C.

`CC1CCc2nc(Cl)nc(-c3ccc(F)cc3)c2C1` (configuration not stated) gave a melting point of 106 to 108 °C.

For `COc1ccc(CNc2nc(C)c(-c3ccncc3)s2)cc1OC`, the melting point fell in the range of 134 to 135 °C.

`O=C(Nc1ccc2[nH]c(=O)sc2c1)C(=O)N1CCC(Oc2ccc(Cl)cc2)CC1` yielded a melting point of 245 to 247 °C.

In turn, `CCOC(=O)c1cnc2nn(C)cc2c1N1CCCCC1` came in with a melting point of 185 to 188 °C.

For the compound `Cn1cc(C2=C(c3cn(CCCC#N)c4ccccc34)C(=O)NC2=O)c2ccccc21`, the melting point was 245 to 247 °C.

As to `CC(=O)NCCc1c(C(F)(F)F)nn2ccc3c(c12)CCO3`, the melting point lay in the range of 196 to 198 °C.

In the case of `N#Cc1ccc(OC2CCN(c3ccncc3)C2)cc1` (configuration not stated), the melting point fell in the range of 182 to 185 °C.

In turn, `CCS(=O)(=O)CC(=O)Nc1c(C)cccc1C` came in with a melting point of 128 to 130 °C.

`COc1ccc(CN(C)CCc2ccc(NC(=O)c3cccc4c(=O)c5cccc(OC)c5sc34)cc2)cc1OC` registered a melting point of 151 °C.

In turn, `COc1cc(O)ccc1-c1cnc2cnc(-c3ccc(O)cc3)nc2c1` came in with a melting point of 207 to 208 °C.

As to `O=S1NC(CCCc2ccc3ccccc3c2)=NO1` (configuration not stated), the melting point was in the range of 139 to 140 °C.

Compound `O=C(O)c1cc(Cl)cc(Cl)c1[N+](=O)[O-]` displayed a melting point of 190 to 192 °C.

The compound `CCS(=O)(=O)N(c1ccc(F)cc1Br)S(=O)(=O)CC` returned a melting point of 114 to 116 °C.

For the compound `COc1ccc(-c2noc(CC(=O)O)c2-c2ccc(OC)cc2)cc1`, the melting point lay in the range of 142 to 143 °C.

With `COc1ccc(S(=O)(=O)C(CCCc2ccccc2)(CCCc2ccccc2)C(=O)NO)cc1`, the melting point lay within 118 to 120 °C.

In turn, `COC1CC(N)C(O)C(C)O1` (configuration not stated) had a melting point of 130 °C.

On to `COC1(c2csc(Sc3ccc4c(c3)CCC(=O)N4C)c2)CCOCC1`, for which the melting point lay within 106 to 108 °C.

`O=C1COC(C#Cc2cccnc2)(C(F)(F)F)c2cc(Cl)ccc2N1` (configuration not stated) gave a melting point of 219 to 221 °C.

In the case of `CC(=O)SCC(Cc1ccccc1)C(=O)Nc1cc(C(=O)O)ccc1N1CCCCC1` (configuration not stated), the melting point is 170 to 174 °C.

In the case of `CC(=O)c1cc(Cl)ccc1NS(=O)(=O)C(F)(F)F`, the melting point is 36 to 38 °C.

As for `Cn1cc(C(O)CO)c2c3c(c(-c4ccccc4Cl)cc21)C(=O)NC3=O` (configuration not stated), the melting point fell in the range of 179 to 183 °C.

`Cc1cc2[nH]c(=O)ccc(=O)c2cc1C` showed a melting point of 258 °C.

The compound `COc1cc(Br)c(Nc2nc(C)nc(-c3ccccc3C(F)(F)F)c2[N+](=O)[O-])c(OC)c1` came in with a melting point of 147 to 148 °C.

`CC(C)(C)NCC(O)COc1ccccc1Cc1cccc2[nH]ccc12` (configuration not stated): the melting point turned out to be 78 °C.

`CCOC(=O)c1cc(Cl)cc(N)c1Cl` registered a melting point of 63 to 65 °C.

Turning to `CSc1nnc2n1C=C(C)c1ccccc1C2`, the melting point was 129 to 130 °C.

In the case of `C=CCOc1cc(-n2c(OC)nc(C(F)(F)F)cc2=O)c(F)cc1Cl`, the melting point was 103 to 104 °C.

In turn, `COC(=O)c1cc([N+](=O)[O-])c(Cl)c([N+](=O)[O-])c1` yielded a melting point of 104 to 106 °C.

For the compound `CC(C)Cc1nc2c(N)nc3ccccc3c2s1`, the melting point was 123 to 125 °C.

On to `[N-]=[N+]=Nc1cccc2cccc(O)c12`, for which the melting point was 65 to 67 °C.

Take `Cc1cc(CCCCCOc2c(Cl)cc(C3=NCCO3)cc2Br)on1`: the melting point fell in the range of 41 to 42 °C.

`CN1CCC(c2c[nH]c3ccc(Br)cc23)C1` (configuration not stated) gave a melting point of 152 to 154 °C.

On to `Cn1nc(-c2ccccc2)nc1-c1cccnc1`, for which the melting point lay in the range of 97 to 98 °C.

In turn, `NCCNC(=O)c1ccc2c(c1)OCO2` had a melting point of 120 to 123 °C.

Compound `Cc1cc2nc(Cl)cc(N)c2[nH]1` had a melting point of 270 °C.

`CCOCc1cc2ccccc2oc1=Nc1ccc(OC)cc1` gave a melting point of 78 to 79 °C.

As for `CC1CCC(=NNc2ccccc2)c2ncc(CC(=O)O)c(=O)n21` (configuration not stated), the melting point was 160 to 162 °C.

`CCCCc1nc2cncc(C)c2[nH]1`: the melting point was in the range of 111 to 124 °C.

`Cn1cc(CS(C)=O)c(=O)c2ccc(Cl)cc21` (configuration not stated) returned a melting point of 180 to 181 °C.

The compound `C#CCNC(=NCCSCc1ncccc1Cl)NC#N` registered a melting point of 115 to 116 °C.

`CNC(=O)N(O)C(C)c1ccc(-n2c(C)ccc2C)cc1` (configuration not stated): the melting point lay in the range of 131 to 133 °C.

As for `O=C1OC(CO)CN1c1ccc(O)cc1` (configuration not stated), the melting point turned out to be 189 °C.

The compound `CC(=O)OCC1=NC(NC(=O)Nc2cccc(C)c2)C(=O)N(CC(=O)N2CCCCCCC2)c2c(C)cccc21` (configuration not stated) had a melting point of 112 to 114 °C.

With `CN1CCC(c2c[nH]c3ccc(C(=O)c4ccccn4)cc23)CC1`, the melting point was 90 °C.

Turning to `CCOc1ccc(-c2ccc(C#CC3(O)CN4CCC3CC4)cc2)cc1` (configuration not stated), the melting point lay in the range of 255 to 256 °C.

As for `N#Cc1cc([N+](=O)[O-])ccc1N1CCC(O)CC1`, the melting point lay in the range of 114 to 115 °C.

For `O=C1O[C@@H](CO)CN1c1ccc(C2=CCOCC2)c(F)c1`, the melting point is 127 to 130 °C.

Regarding `CCCC(=O)C1=C(O)CC(c2cccc3c2OCO3)CC1=O` (configuration not stated), the melting point was in the range of 81 to 82 °C.

The compound `Cc1c(C)c2c(c(C)c1O)CCC(C)(C#Cc1cccs1)O2` (configuration not stated) had a melting point of 133 to 135 °C.

Compound `COc1ccc2c(c1)C(=O)N(c1ccc3cccnc3c1)C2` displayed a melting point of 220 to 223 °C.

`Cc1[nH]c2ccc(OC(C)C(C)N3CCCC3)cc2c1C(=O)OCc1ccccc1` (configuration not stated) had a melting point of 94 to 98 °C.

For the compound `CC(=O)NCC1CN(c2ccc(N(C)C=O)c(F)c2)C(=O)O1` (configuration not stated), the melting point lay within 116 to 117 °C.

`O=c1ccn(C2CC(O)C(CNC(c3ccccc3)(c3ccccc3)c3ccccc3)O2)c(=O)[nH]1` (configuration not stated): the melting point lay in the range of 132 to 134 °C.

With `CCCc1nnc2c(=O)n(C)c3ccc(Cl)cc3n12`, the melting point lay in the range of 265 to 266 °C.

In turn, `COc1ccc(-c2ccsc2)c2c1c(CCN(C)C)cn2C` registered a melting point of 120 to 122 °C.

As for `CCOC1=CC(=O)N([C@@H]2c3cc(C#N)ccc3OC(C)(C)[C@H]2OC(C)=O)C1` (relative stereo), the melting point is 156 °C.

As for `COc1cc(C=Cc2nc3c([nH]2)c(=O)n(C)c(=O)n3C)cc(OC)c1`, the melting point is above 320 °C.

Compound `CN1C(=O)C2(COc3cc4c(cc32)OCCO4)c2c(NC(=O)c3ccccc3C(F)(F)F)cccc21` (configuration not stated) showed a melting point of 241 to 243 °C.

As for `CS(=O)(=O)Nc1cccc(Nc2nc(NCc3ccccc3O)c3nc[nH]c3n2)c1`, the melting point is 168 to 171 °C.

For the compound `COc1ccc(C(=O)N2CCc3cc(O)c(OC)cc3C2=O)cc1`, the melting point is 224 to 225 °C.

Compound `CS(=O)(=O)Nc1ccc(C(O)CNC2CCN(c3ccc(CC4SC(=O)NC4=O)cc3)CC2)cn1` (configuration not stated) yielded a melting point of 57 to 59 °C.

In the case of `CS(=O)(=O)c1ccc(C(O)C(CF)NC(=O)C(F)F)cc1` (configuration not stated), the melting point lay in the range of 141 to 142 °C.

`OCCc1nc(NCc2ccccn2)c2c(-c3ccccc3)csc2n1` had a melting point of 90 to 92 °C.

Compound `O=C(C=Cc1ccc2c(c1)OCO2)C1C(=O)CC(c2ccccc2)CC1=O` (configuration not stated) came in with a melting point of 157 to 158 °C.

In the case of `CC(C)c1ccc2c(c1)c(S(=O)(=O)c1ccccc1C(C)C)c(CC(C)(C)C(=O)O)n2Cc1ccc(Cl)cc1`, the melting point is 181 to 182 °C.

`COc1ccc(CNc2cc(C(N)=O)c([N+](=O)[O-])cc2[N+](=O)[O-])cc1` came in with a melting point of 201 to 203 °C.

`NS(=O)(=O)Cc1csc(-c2ccc(Cl)c(Cl)c2)n1` displayed a melting point of 165 to 167 °C.

Turning to `Nc1nc(N)c2c(n1)CCC(Cc1cc(Cl)cc(Cl)c1)C2` (configuration not stated), the melting point is above 200 °C.

In turn, `COC(=O)c1oc2ccc(OC)cc2c1OCc1ccccc1` had a melting point of 81 to 84 °C.

`CNCc1ccc2cc(OC)ccc2c1`: the melting point was 96 to 104 °C.

In the case of `CSc1nnc(C(F)F)s1`, the melting point worked out at 23 °C.

Turning to `O=C1c2ccccc2C(=O)N1C1CCN(Cc2ccccc2)CC1`, the melting point lay in the range of 154 to 157 °C.

`Cc1nc(NC(=O)c2cnn3c(C(F)(F)F)cc(-c4ccc(Cl)cc4)nc23)sc1S(=O)(=O)NC(C)(C)CO` came in with a melting point of 274 °C.

In turn, `COc1ccc(-c2csc(Nc3cccc4ccccc34)n2)cc1OC` displayed a melting point of 244 to 246 °C.

Take `CCC(=NOC)C1=C(O)CC(c2ccc(NS(C)(=O)=O)cc2)CC1=O` (configuration not stated): the melting point is 150 to 151 °C.

For `COCCOC(=O)C1=C(C)NC(C)=C(C(=O)OCCN2CCN(C(c3ccccc3)c3ccccc3)CC2)C1c1cccc([N+](=O)[O-])c1` (configuration not stated), the melting point was in the range of 62 to 66 °C.

`COC(=O)C1=CC(=O)CCC1c1ccccc1OC` (racemic) yielded a melting point of 76 °C.

In turn, `Cc1cccnc1C(=O)c1[nH]c2cc(Cl)ccc2c1N` had a melting point of 171 to 172 °C.

As to `C=C(C)C(=O)OCCCCCCOc1ccc(C=Cc2ccc([N+](=O)[O-])cc2)cc1`, the melting point was 90 to 95 °C.

`CCCCCCCOc1cc2c(cc1C(C)=O)C(C)(C)CCS2` returned a melting point of 69 to 71 °C.

`O=C(O)Cc1cc(C(=O)c2ccccc2)cc(Br)c1O` displayed a melting point of 132 °C.

In turn, `CCC=C(NC(=O)C1CC1(C)C)C(=O)O` (configuration not stated) displayed a melting point of 154 to 156 °C.

`N[C@@H]1CN2CCC1CC2`: the melting point lay within 118 to 121 °C.

With `O=C(NC1CCC(CCN2CCN(c3nccc4c3CCO4)CC2)CC1)c1ccc(N2CCS(=O)(=O)CC2)cc1` (configuration not stated), the melting point stood at 262 °C.
